{
  "source": "ChEMBL document CHEMBL3217469",
  "about": "“Redesigning the designer drug ecstasy: non-psychoactive MDMA analogues exhibiting Burkitt's lymphoma cytotoxicity” (Medchemcomm, 2010)",
  "key": {"[1]": {"experiment": "Cytotoxicity against human L3055 cells assessed as reduction in [3H]thymidine incorporation after 24 hrs by propidium iodide staining-based assay", "assay_type": "functional, cell-based"}, "Rattus norvegicus [2]": {"species": "Rattus norvegicus", "experiment": "Induction of psychotic activity in Wistar rat assessed as reduction in prepulse inhibition of acoustic startle reflex", "assay_type": "organism-based", "conditions": "in vivo; call rule not given here"}, "Rattus norvegicus [3]": {"system": "Rattus norvegicus", "experiment": "Induction of psychotic activity in Wistar rat assessed as reduction in prepulse inhibition of acoustic startle reflex at 4.4 to 88 umol/kg", "assay_type": "organism-based", "conditions": "in vivo"}, "[4]": {"biological_target": "T1, 5-hydroxytryptamine receptor 1A (Rattus norvegicus, UniProt P19327)", "T1 sequence (P19327 whole entry)": "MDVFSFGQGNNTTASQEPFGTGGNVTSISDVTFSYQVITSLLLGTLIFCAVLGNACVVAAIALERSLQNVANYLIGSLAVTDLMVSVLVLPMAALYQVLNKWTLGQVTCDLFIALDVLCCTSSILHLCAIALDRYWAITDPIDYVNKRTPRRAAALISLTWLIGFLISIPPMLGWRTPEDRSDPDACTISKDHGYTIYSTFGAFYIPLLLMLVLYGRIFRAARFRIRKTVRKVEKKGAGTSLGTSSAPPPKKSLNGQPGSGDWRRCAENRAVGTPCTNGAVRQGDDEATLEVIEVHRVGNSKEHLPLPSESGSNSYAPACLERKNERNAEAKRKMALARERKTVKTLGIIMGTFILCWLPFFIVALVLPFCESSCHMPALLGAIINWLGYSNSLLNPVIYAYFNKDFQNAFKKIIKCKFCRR", "experiment": "Displacement of [3H]WAY100635 from 5-HT1A receptor in Sprague-Dawley rat cerebral cortex after 60 mins by scintillation counting analysis", "assay_type": "tissue-based"}, "Serotonin 1B/1D receptor": {"biological_target": "Serotonin 1B/1D receptor (Rattus norvegicus, UniProt P28564+P28565)", "experiment": "Displacement of [3H]GR125743 from 5-HT1B/1D receptor in Sprague-Dawley rat whole brain after 60 mins by scintillation counting analysis"}, "[5]": {"biological_target": "T2, 5-hydroxytryptamine receptor 2C (Rattus norvegicus, UniProt P08909)", "T2 sequence (P08909 whole entry)": "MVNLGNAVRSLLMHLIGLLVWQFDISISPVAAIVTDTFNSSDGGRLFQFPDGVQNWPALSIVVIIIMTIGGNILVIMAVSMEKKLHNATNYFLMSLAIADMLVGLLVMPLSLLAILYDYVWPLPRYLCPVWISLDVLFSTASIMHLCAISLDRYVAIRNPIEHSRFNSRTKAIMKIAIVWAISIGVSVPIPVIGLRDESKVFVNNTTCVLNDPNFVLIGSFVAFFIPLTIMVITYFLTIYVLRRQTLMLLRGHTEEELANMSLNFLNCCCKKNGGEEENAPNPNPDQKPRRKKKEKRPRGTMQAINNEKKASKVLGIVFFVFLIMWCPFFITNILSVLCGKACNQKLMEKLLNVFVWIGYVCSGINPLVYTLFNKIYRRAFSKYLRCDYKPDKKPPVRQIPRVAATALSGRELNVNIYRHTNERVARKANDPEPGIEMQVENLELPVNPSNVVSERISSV", "experiment": "Displacement of [3H]mesulergine from 5-HT2C receptor in Sprague-Dawley rat whole brain after 60 mins by scintillation counting analysis"}, "[6]": {"biological_target": "5-hydroxytryptamine receptor 2A (Rattus norvegicus, UniProt P14842)", "sequence (P14842 whole entry)": "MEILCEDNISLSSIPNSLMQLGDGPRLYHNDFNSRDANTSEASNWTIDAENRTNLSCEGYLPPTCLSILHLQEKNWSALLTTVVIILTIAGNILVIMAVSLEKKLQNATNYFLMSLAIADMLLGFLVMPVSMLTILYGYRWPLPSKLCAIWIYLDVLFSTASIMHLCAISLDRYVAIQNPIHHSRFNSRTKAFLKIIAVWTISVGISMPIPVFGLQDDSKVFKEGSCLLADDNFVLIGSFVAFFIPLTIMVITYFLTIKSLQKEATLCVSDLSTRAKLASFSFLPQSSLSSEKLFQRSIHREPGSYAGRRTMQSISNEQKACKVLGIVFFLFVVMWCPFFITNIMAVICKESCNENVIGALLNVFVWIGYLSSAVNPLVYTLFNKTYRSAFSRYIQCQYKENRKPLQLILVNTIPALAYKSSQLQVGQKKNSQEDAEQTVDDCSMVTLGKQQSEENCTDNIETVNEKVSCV", "experiment": "Displacement of [3H]-ketanserin from 5-HT2A receptor in Sprague-Dawley rat cerebral cortex after 45 mins by scintillation counting analysis", "assay_type": "tissue-based"}, "Transporter": {"biological_target": "Transporter (Rattus norvegicus, UniProt Q63380)", "sequence (Q63380 whole entry)": "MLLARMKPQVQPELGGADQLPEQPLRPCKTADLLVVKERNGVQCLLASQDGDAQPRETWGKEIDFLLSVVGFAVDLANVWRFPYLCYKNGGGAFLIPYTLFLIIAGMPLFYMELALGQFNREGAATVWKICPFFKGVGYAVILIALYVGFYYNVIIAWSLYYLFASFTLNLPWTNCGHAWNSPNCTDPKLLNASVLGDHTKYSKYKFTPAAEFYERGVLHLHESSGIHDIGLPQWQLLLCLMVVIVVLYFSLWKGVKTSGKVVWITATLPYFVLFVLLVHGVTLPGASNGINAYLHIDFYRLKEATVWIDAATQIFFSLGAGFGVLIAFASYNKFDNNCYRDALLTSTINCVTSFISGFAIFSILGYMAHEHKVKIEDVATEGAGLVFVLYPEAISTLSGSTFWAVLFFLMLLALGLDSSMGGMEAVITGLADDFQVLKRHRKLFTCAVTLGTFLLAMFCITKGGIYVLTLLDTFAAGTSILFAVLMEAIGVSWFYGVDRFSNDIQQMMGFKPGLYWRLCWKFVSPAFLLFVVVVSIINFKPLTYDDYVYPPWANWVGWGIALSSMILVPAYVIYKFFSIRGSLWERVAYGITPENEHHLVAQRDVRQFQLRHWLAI", "experiment": "Displacement of [3H]nisoxetine from NET in Sprague-Dawley rat cerebellum after 60 mins by scintillation counting analysis"}, "[7]": {"biological_target": "Sodium-dependent serotonin transporter (Rattus norvegicus, UniProt P31652)", "sequence (P31652 whole entry)": "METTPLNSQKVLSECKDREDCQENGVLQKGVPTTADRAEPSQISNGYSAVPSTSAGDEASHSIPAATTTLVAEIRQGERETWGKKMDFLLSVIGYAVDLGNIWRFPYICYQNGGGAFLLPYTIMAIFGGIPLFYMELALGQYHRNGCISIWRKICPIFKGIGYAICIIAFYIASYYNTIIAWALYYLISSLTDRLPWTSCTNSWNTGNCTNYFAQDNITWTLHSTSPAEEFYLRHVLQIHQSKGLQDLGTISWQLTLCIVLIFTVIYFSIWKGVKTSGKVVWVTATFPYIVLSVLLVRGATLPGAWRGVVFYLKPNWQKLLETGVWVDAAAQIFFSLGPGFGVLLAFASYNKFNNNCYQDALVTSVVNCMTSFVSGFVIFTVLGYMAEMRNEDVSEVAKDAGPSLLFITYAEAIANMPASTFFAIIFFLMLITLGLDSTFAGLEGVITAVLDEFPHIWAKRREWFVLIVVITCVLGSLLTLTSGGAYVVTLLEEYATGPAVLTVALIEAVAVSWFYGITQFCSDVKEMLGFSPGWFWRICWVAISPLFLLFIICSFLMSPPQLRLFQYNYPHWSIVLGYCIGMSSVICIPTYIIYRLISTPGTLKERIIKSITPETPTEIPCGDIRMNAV", "experiment": "Displacement of [3H]citalopram from SERT in Sprague-Dawley rat whole brain after 60 mins by scintillation counting analysis"}, "[8]": {"biological_target": "Sodium-dependent dopamine transporter (Rattus norvegicus, UniProt P23977)", "sequence (P23977 whole entry)": "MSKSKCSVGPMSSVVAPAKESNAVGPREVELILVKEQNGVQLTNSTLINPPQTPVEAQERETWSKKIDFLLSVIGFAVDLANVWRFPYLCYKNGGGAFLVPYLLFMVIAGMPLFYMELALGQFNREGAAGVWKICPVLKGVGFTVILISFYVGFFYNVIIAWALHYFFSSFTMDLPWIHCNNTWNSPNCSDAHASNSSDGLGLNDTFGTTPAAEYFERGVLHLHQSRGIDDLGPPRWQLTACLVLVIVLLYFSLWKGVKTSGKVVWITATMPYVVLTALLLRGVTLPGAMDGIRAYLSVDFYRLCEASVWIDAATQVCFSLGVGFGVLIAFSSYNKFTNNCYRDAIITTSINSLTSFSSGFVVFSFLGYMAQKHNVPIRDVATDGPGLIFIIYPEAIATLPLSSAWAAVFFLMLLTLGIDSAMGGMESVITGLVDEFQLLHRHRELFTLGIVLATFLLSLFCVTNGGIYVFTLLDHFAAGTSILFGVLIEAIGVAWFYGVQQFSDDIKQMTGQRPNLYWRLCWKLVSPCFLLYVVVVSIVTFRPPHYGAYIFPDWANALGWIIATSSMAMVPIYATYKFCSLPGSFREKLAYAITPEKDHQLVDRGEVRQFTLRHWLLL", "experiment": "Displacement of [3H]GBR12935 from DAT in Sprague-Dawley rat striatum after 45 mins by scintillation counting analysis"}, "SH-SY5Y": {"system": "SH-SY5Y", "experiment": "Neurotoxicity against human SH-SY5Y cells at 1 to 600 uM after 24 hrs by Alamar Blue assay", "assay_type": "toxicity, cell-based"}, "[9]": {"experiment": "Ratio of MDMA IC50 to compound IC50 for human L3055 cells", "assay_type": "functional"}},
  "data": [
    {"smiles": "CNC(Cc1ccc2c(c1)OCO2)c1ccccc1C", "note": "(racemic)", "values": [
      {"measurement": "IC50", "setting": "[1]", "result": 65, "unit": "µM"}
    ]},
    {"smiles": "CNC(Cc1ccc2c(c1)OCO2)C1CC1", "note": "(racemic)", "values": [
      {"measurement": "IC50", "setting": "[1]", "result": 801, "unit": "µM"}
    ]},
    {"smiles": "CNC(Cc1ccc2c(c1)OCO2)Cc1ccc2c(c1)OCO2", "values": [
      {"measurement": "IC50", "setting": "[1]", "result": 36.7, "unit": "µM"}
    ]},
    {"smiles": "CNC(Cc1ccc2c(c1)OCO2)c1cccc(C)c1", "note": "(racemic)", "values": [
      {"measurement": "IC50", "setting": "[1]", "result": 51, "unit": "µM"}
    ]},
    {"smiles": "CNC(Cc1ccc2c(c1)OCO2)c1cccc(OC)c1", "note": "(racemic)", "values": [
      {"measurement": "IC50", "setting": "[1]", "result": 80, "unit": "µM"}
    ]},
    {"smiles": "CNC(Cc1ccc2c(c1)OCO2)C(C)C", "note": "(racemic)", "values": [
      {"measurement": "IC50", "setting": "[1]", "result": 651, "unit": "µM"}
    ]},
    {"smiles": "CCC(Cc1ccc2c(c1)OCO2)NC", "note": "(racemic)", "values": [
      {"measurement": "IC50", "setting": "[1]", "result": 707, "unit": "µM"}
    ]},
    {"smiles": "COc1ccc(CC(C)N)cc1", "note": "(centres undefined) [PARA-METHOXYAMPHETAMINE]", "values": [
      {"measurement": "Activity", "setting": "Rattus norvegicus [2]", "result": "Dose-dependent effect"}
    ]},
    {"smiles": "CNC(Cc1ccc2c(c1)OCO2)c1ccc(C)cc1", "note": "(racemic)", "values": [
      {"measurement": "IC50", "setting": "[1]", "result": 42, "unit": "µM"}
    ]},
    {"smiles": "CNC(Cc1ccc2c(c1)OCO2)C1CCCCC1", "note": "(racemic)", "values": [
      {"measurement": "IC50", "setting": "[1]", "result": 81, "unit": "µM"}
    ]},
    {"smiles": "CNC(Cc1ccc2c(c1)OCO2)c1ccccc1.Cl", "note": "(racemic)", "values": [
      {"measurement": "Activity", "setting": "Rattus norvegicus [3]", "result": "Non-toxic"},
      {"measurement": "Ki", "setting": "[4]", "result": "> 10", "unit": "µM"},
      {"measurement": "Ki", "setting": "Serotonin 1B/1D receptor", "result": "> 10", "unit": "µM"},
      {"measurement": "Ki", "setting": "[5]", "result": "> 10", "unit": "µM"},
      {"measurement": "Ki", "setting": "[6]", "result": 1.23, "unit": "µM"},
      {"measurement": "Ki", "setting": "Transporter", "result": 0.7, "unit": "µM"},
      {"measurement": "Ki", "setting": "[7]", "result": 1.32, "unit": "µM"},
      {"measurement": "Ki", "setting": "[8]", "result": "> 10", "unit": "µM"},
      {"measurement": "Activity", "setting": "SH-SY5Y", "result": "Toxic"},
      {"measurement": "Ratio IC50", "setting": "[9]", "result": 7},
      {"measurement": "IC50", "setting": "[1]", "result": 76, "unit": "µM"}
    ]},
    {"smiles": "CNC(Cc1ccc2c(c1)OCO2)c1ccc(F)cc1", "note": "(racemic)", "values": [
      {"measurement": "IC50", "setting": "[1]", "result": 63, "unit": "µM"}
    ]},
    {"smiles": "CNC(Cc1ccc2c(c1)OCO2)C(C)(C)C", "note": "(racemic)", "values": [
      {"measurement": "IC50", "setting": "[1]", "result": 447, "unit": "µM"}
    ]},
    {"smiles": "CNC(Cc1ccc2c(c1)OCO2)c1ccc(-c2ccccc2)cc1", "note": "(racemic)", "values": [
      {"measurement": "IC50", "setting": "[1]", "result": 6, "unit": "µM"}
    ]},
    {"smiles": "CCCC(Cc1ccc2c(c1)OCO2)NC", "note": "(racemic)", "values": [
      {"measurement": "IC50", "setting": "[1]", "result": 379, "unit": "µM"}
    ]},
    {"smiles": "CNC(Cc1ccc2c(c1)OCO2)c1ccccc1OC", "note": "(racemic)", "values": [
      {"measurement": "IC50", "setting": "[1]", "result": 92, "unit": "µM"}
    ]},
    {"smiles": "CNC(C)Cc1ccc2c(c1)OCO2.Cl", "note": "(centres undefined) [MIDOMAFETAMINE HYDROCHLORIDE]", "values": [
      {"measurement": "Ki", "setting": "[4]", "result": "> 10", "unit": "µM"},
      {"measurement": "Ki", "setting": "Serotonin 1B/1D receptor", "result": "> 10", "unit": "µM"},
      {"measurement": "Ki", "setting": "[5]", "result": "> 10", "unit": "µM"},
      {"measurement": "Ki", "setting": "[6]", "result": "> 10", "unit": "µM"},
      {"measurement": "Ki", "setting": "Transporter", "result": "> 10", "unit": "µM"},
      {"measurement": "Ki", "setting": "[7]", "result": 0.21, "unit": "µM"},
      {"measurement": "Ki", "setting": "[8]", "result": "> 10", "unit": "µM"},
      {"measurement": "Activity", "setting": "SH-SY5Y", "result": "Toxic"},
      {"measurement": "IC50", "setting": "[1]", "result": 507, "unit": "µM"},
      {"measurement": "Activity", "setting": "Rattus norvegicus [2]", "result": "Dose-dependent effect"}
    ]},
    {"smiles": "CNC(Cc1ccc2c(c1)OCO2)c1ccc(OC)cc1", "note": "(racemic)", "values": [
      {"measurement": "IC50", "setting": "[1]", "result": 69, "unit": "µM"}
    ]},
    {"smiles": "CNC(Cc1ccccc1)Cc1ccc2c(c1)OCO2", "note": "(racemic)", "values": [
      {"measurement": "IC50", "setting": "[1]", "result": 69, "unit": "µM"}
    ]},
    {"smiles": "CNC(Cc1ccc2c(c1)OCO2)c1ccc2ccccc2c1.Cl", "note": "(racemic)", "values": [
      {"measurement": "Activity", "setting": "SH-SY5Y", "result": "Non-toxic"},
      {"measurement": "Ratio IC50", "setting": "[9]", "result": 100},
      {"measurement": "IC50", "setting": "[1]", "result": 6.6, "unit": "µM"}
    ]},
    {"smiles": "CNC(Cc1ccc2c(c1)OCO2)c1cccc2ccccc12.Cl", "note": "(racemic)", "values": [
      {"measurement": "Activity", "setting": "SH-SY5Y", "result": "Non-toxic"},
      {"measurement": "Ratio IC50", "setting": "[9]", "result": 100},
      {"measurement": "IC50", "setting": "[1]", "result": 12.6, "unit": "µM"}
    ]}
  ]
}
